Data reported in EP1043331A1, “BONE-RESORPTIVE CYTOKINE INHIBITOR CONTAINING DIENOGEST AS THE ACTIVE INGREDIENT” (MOCHIDA PHARMACEUTICAL CO., LTD., priority 1997, dated 1999).
Marks after values point to notes of the source that are not given here.

Experiments:
Type in all cases: cell-based, mouse
murine osteoclast = experiment: Pit formation by murine osteoclast on ivory disks; settings: 3 days culture on ivory disk, control 0.16
Protocol: After an ICR mouse of age 13 days was bled to death under anesthesia (pentobarbital sodium), bilateral femoral bones were resected. In an α-MEM culture medium (Gibco), the femoral bones were cut into pieces with a pair of bone scissors for 5 minutes, and the resulting pieces were agitated with a vortex mixer for 30 seconds. The cell suspension was centrifuged (1000 g, 2 min., 15 °C), and the resulting supernatant was discarded. The precipitate was suspended in an α-MEM culture medium, to adjust the suspension to a cell number of 1×10^7 cells/ml.
A purchased ivory piece was processed into a disk of a diameter of 5.5 mm and a thickness of 200 µm, by using a precision low-speed cutter (manufactured by BUEHLER) and a cut blade. The disk was then treated under ultrasonication in distilled water, and was immersed in an α-MEM culture medium (culture medium) supplemented with 10 % bovine fetal serum (Dai-Nippon Pharmaceuticals, Co.) treated with charcoal. The resulting each disk was placed in each well of a 96-well culture plate (Falcon), to which was added 100 µl of the drug solution. The osteoclast suspension was inoculated at 1×10^6 cells(100µl) thereon, for culturing at 37 °C in 5 % CO2/95 % air for 3 days. All the drugs were adjusted to final concentrations of 10^-11, 10^-10 and 10^-9 M. Additionally, five samples per each concentration were experimented.
Absorbency was determined by calculating a phargocytized area on the bone. More specifically, the ivory piece after the treatment with the drugs was wiped with gauze, rinsed with an ultrasonication machine for 30 minutes, and stained with an acid hematoxylin solution (Sigma Chemical Co., Ltd.) for 5 minutes. The piece was then rinsed in distilled water, and the phargocytized absorption area was measured with an image analyzer (Luzex, Nireco) at 100 magnification. Nine different parts were counted per each ivory piece, to calculate the average.

PKA = PKA activity in murine osteoblast (time-resolved fluorometry); settings: Fig.2
Protocol: According to the method by Johansen, et al. (Journal Bone and Mineral Research, Vol.7, pp.501-509, 1992), osteoblast was collected from the femoral bones of a female SLC : ICR mouse of age 15 weeks. Under anesthesia with pentobarbital sodium (25 mg/kg, intraperitoneal administration), postcava was cut to bleed and kill the animal to death. Then, bilateral femoral bones were resected. This bone was cut with a pair of bone scissors, to remove the bone marrow with a micro-loop. The inner face of the bone was rubbed off with a sharp blade. The resulting matter was agitated in a 10 % collagenase solution (Nitta gelatin) at 37 °C for 20 minutes, and to the resulting mixture was added a culture medium (an MEM culture medium supplemented with 10 % charcoal-treated bovine fetal serum; manufactured by Nissui Pharmaceutical, Co. Ltd.) prior to centrifugation (300×g, 5 minutes and 20 °C). The resulting cells were dispersed in a fresh culture medium and then inoculated on a plastic culture dish (diameter of 35 mm, Primaria (Falcon)). […] Osteoblast was identified by using alkali phosphatase staining as an osteoblast marker. For recovering osteoblast from an animal after ovariectomy, ovariectomy was carried out at age 11 weeks, and the animal was fed for the following 4 weeks, prior to the same treatment. 1×10^4 cells/ml osteoblast suspension (100 µl), a culture medium (890 µl) and a drug solution (10 µl) were added into each well of a plastic 24-well culture plate (Falcon), for culturing at 37 °C in 5 % CO2/95 % air for 24 hours, and then, the resulting culture was centrifuged (300 ×g, 5 minutes, 20°C) to recover the supernatant, which was defined as a cytokine assay sample. […] For experiments, furthermore, three dishes per each group were used. The osteoblast recovered by the method of the Experimental Example 1 was used. […] An enhancer reagent (100 µl) was added, for agitation at room temperature for 5 minutes, to determine the fluorescence intensity with a time-resolved fluorometer. Based on a preliminarily prepared standard curve, PKA activity was calculated.

IL-1β = IL-1β release from murine osteoblast (culture supernatant cytokine assay); settings: 24 hours culture
Protocol: Under anesthesia with pentobarbital sodium (25 mg/kg, intraperitoneal administration), postcava was cut to bleed and kill the animal to death. Then, bilateral femoral bones were resected. This bone was cut with a pair of bone scissors, to remove the bone marrow with a micro-loop. The inner face of the bone was rubbed off with a sharp blade. The resulting matter was agitated in a 10 % collagenase solution (Nitta gelatin) at 37 °C for 20 minutes, and to the resulting mixture was added a culture medium (an MEM culture medium supplemented with 10 % charcoal-treated bovine fetal serum; manufactured by Nissui Pharmaceutical, Co. Ltd.) prior to centrifugation (300×g, 5 minutes and 20 °C). The resulting cells were dispersed in a fresh culture medium and then inoculated on a plastic culture dish (diameter of 35 mm, Primaria (Falcon)). […] Osteoblast was identified by using alkali phosphatase staining as an osteoblast marker. For recovering osteoblast from an animal after ovariectomy, ovariectomy was carried out at age 11 weeks, and the animal was fed for the following 4 weeks, prior to the same treatment.
Dienogest as a test substance was dissolved and diluted in dimethylsulfoxide (DMSO, manufactured by Wako Pure Chemical Industries, Ltd.) for use. As a control substance, furthermore, MPA and danazol were used after they were dissolved and diluted in DMSO. DMSO was used as a solvent control.
The final concentrations of the drug were 10^-11, 10^-10 and 10^-9 M. For experiments, furthermore, three dishes per each group were used.
Using SMRART ™ (Pharmacia Biotech, Uppsala, Sweden), the supernatant was concentrated by about 10 fold, after the termination of culturing. The level of cytokine in the sample was assayed by using assay kits of murine IL-1β, IL-6 and TNF-α (Cytoscreen™, BioSource International, Camarillo, Calif. CA, USA) and europium-labeled streptoavidin (Pharmacia Biotech).

[1] = doses of 10^-11, 10^-10 and 10^-9 M
[2] = osteoblast of non-treated mouse, 10^-9 M, control 13.9
[3] = osteoblast of non-treated mouse, 10^-10 M, control 13.9
[4] = osteoblast of non-treated mouse, 10^-11 M, control 13.9
[5] = osteoblast of ovariectomized mouse, 10^-9 M, control 26.3
[6] = osteoblast of ovariectomized mouse, 10^-10 M, control 26.3
[7] = osteoblast of ovariectomized mouse, 10^-11 M, control 26.3

| Compound | pit formation due to murine osteoclast (phargocytized absorption area) (murine osteoclast; 10^-9 M) | pit formation due to murine osteoclast (phargocytized absorption area) (murine osteoclast; 10^-10 M) | pit formation due to murine osteoclast (phargocytized absorption area) (murine osteoclast; 10^-11 M) | PKA activity in the murine osteoblast (PKA; [1]) | IL-1β (IL-1β; [2]) | IL-1β (IL-1β; [3]) | IL-1β (IL-1β; [4]) | IL-1β (IL-1β; [5]) | IL-1β (IL-1β; [6]) | IL-1β (IL-1β; [7]) | PKA activity in the murine osteoblast (PKA; at a concentration of 10^-9 M or more) |
| --- | --- | --- | --- | --- | --- | --- | --- | --- | --- | --- | --- |
| C#C[C@]1(O)CC[C@H]2[C@@H]3CCC4=Cc5oncc5C[C@]4(C)[C@H]3CC[C@@]21C [Danazol, danazol] | 0.16 | 0.15 | 0.16 | did not affect | 15.4* pg/ml | 13.8 pg/mL | 13.6 pg/mL | 28.1** pg/ml | 26.0 pg/mL | 25.2 pg/mL | – |
| C[C@]12CCC3=C4CCC(=O)C=C4CC[C@H]3[C@@H]1CC[C@@]2(O)CC#N [Dienogest, 17 α-cyanomethyl-17β-hydroxy-estra-4,9(10)-dien-3-one] | 0.10** | 0.15 | 0.15 | – | 12.0** pg/ml | 13.7 pg/mL | 14.4 pg/mL | 23.1** pg/ml | 23.8* pg/ml | 26.1 pg/mL | significantly enhanced |
| CC(=O)O[C@]1(C(C)=O)CC[C@H]2[C@@H]3C[C@H](C)C4=CC(=O)CC[C@]4(C)[C@H]3CC[C@@]21C [MPA, medroxyprogesterone acetate] | 0.16 | 0.16 | 0.16 | did not affect | 16.9* pg/ml | 14.4 pg/mL | 13.3 pg/mL | 30.2** pg/ml | 25.9 pg/mL | 26.3 pg/mL | – |
